# Test results reported in ChEMBL document CHEMBL5528047, “A Potent SOS1 PROTAC Degrader with Synergistic Efficacy in Combination with KRASG12C Inhibitor” (J Med Chem, 2024).
# Calls of active or inactive are those of the source. The calls are words filed in the database; no cut-off is given here.
# Experiments:
# [1] = target: T1, von Hippel-Lindau disease tumor suppressor/Son of sevenless homolog 1 (Homo sapiens, UniProt Q07889+P40337); test: Protac activity at VHL/SOS1 in human K562 cells assessed as SOS1 degradation at 10 uM by Western blotting analysis relative to control; format: cell-based
# Target sequence in this assay (P40337 whole entry, looked up, one chain of several): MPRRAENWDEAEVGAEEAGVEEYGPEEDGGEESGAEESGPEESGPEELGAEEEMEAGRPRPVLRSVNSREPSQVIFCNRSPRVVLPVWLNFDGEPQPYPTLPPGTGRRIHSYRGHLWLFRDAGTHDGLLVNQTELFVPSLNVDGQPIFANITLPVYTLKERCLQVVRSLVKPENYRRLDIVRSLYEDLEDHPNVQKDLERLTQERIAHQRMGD
# [2] = target: T1, von Hippel-Lindau disease tumor suppressor/Son of sevenless homolog 1; test: Protac activity at VHL/SOS1 in human PANC-1 cells assessed as SOS1 degradation incubated for 24 hrs by Western blotting analysis; format: cell-based
# [3] = target: T1, von Hippel-Lindau disease tumor suppressor/Son of sevenless homolog 1; test: Protac activity at VHL/SOS1 in human PANC-1 cells assessed as maximum SOS1 degradation at 0.003 to 10 uM incubated for 24 hrs by Western blotting analysis; format: cell-based; conditions: dose 0.003-10 µM
# Target sequence in this assay (P40337 whole entry, looked up, one chain of several): as above
# [4] = target: T1, von Hippel-Lindau disease tumor suppressor/Son of sevenless homolog 1; test: Protac activity at VHL/SOS1 in human MIA PaCa-2 cells assessed as maximum SOS1 degradation at 0.003 to 10 uM incubated for 24 hrs by Western blotting analysis; format: cell-based; conditions: dose 0.003-10 µM
# Target sequence in this assay (P40337 whole entry, looked up, one chain of several): as above
# [5] = target: T1, von Hippel-Lindau disease tumor suppressor/Son of sevenless homolog 1; test: Protac activity at VHL/SOS1 in human K562 cells assessed as SOS1 degradation at 1 uM incubated for 96 hrs by Western blotting analysis; format: cell-based
# Target sequence in this assay (P40337 whole entry, looked up, one chain of several): as above
# [6] = target: T1, von Hippel-Lindau disease tumor suppressor/Son of sevenless homolog 1; test: Protac activity at VHL/SOS1 in human MIA PaCa-2 cells assessed as SOS1 degradation at 1 uM incubated for 96 hrs by Western blotting analysis; format: cell-based
# Target sequence in this assay (P40337 whole entry, looked up, one chain of several): as above
# [7] = target: T1, von Hippel-Lindau disease tumor suppressor/Son of sevenless homolog 1; test: Protac activity at VHL/SOS1 in human MIA PaCa-2 cells assessed as SOS1 degradation at 1 uM preincubated with MG132 for 2 hrs followed by compound addition and measured after 3 hrs by Western blotting analysis; format: cell-based
# Target sequence in this assay (P40337 whole entry, looked up, one chain of several): as above
# [8] = target: T1, von Hippel-Lindau disease tumor suppressor/Son of sevenless homolog 1; test: Protac activity at VHL/SOS1 in human K562 cells assessed as SOS1 degradation at 1 uM preincubated with MG132 for 2 hrs followed by compound addition and measured after 2 hrs by Western blotting analysis; format: cell-based
# [9] = target: T1, von Hippel-Lindau disease tumor suppressor/Son of sevenless homolog 1; test: Protac activity at VHL/SOS1 in human K562 cells assessed as SOS1 degradation at 1 uM preincubated with VHL ligand V1 for 2 hrs followed by compound addition and measured after 2 hrs by Western blotting analysis; format: cell-based
# [10] = target: T2, Son of sevenless homolog 1 (Homo sapiens) (UniProt Q07889); test: Induction of SOS1 degradation in human MIA PaCa-2 cells at 1 uM after 24 hrs by MS analysis; format: cell-based
# T2 sequence (whole entry): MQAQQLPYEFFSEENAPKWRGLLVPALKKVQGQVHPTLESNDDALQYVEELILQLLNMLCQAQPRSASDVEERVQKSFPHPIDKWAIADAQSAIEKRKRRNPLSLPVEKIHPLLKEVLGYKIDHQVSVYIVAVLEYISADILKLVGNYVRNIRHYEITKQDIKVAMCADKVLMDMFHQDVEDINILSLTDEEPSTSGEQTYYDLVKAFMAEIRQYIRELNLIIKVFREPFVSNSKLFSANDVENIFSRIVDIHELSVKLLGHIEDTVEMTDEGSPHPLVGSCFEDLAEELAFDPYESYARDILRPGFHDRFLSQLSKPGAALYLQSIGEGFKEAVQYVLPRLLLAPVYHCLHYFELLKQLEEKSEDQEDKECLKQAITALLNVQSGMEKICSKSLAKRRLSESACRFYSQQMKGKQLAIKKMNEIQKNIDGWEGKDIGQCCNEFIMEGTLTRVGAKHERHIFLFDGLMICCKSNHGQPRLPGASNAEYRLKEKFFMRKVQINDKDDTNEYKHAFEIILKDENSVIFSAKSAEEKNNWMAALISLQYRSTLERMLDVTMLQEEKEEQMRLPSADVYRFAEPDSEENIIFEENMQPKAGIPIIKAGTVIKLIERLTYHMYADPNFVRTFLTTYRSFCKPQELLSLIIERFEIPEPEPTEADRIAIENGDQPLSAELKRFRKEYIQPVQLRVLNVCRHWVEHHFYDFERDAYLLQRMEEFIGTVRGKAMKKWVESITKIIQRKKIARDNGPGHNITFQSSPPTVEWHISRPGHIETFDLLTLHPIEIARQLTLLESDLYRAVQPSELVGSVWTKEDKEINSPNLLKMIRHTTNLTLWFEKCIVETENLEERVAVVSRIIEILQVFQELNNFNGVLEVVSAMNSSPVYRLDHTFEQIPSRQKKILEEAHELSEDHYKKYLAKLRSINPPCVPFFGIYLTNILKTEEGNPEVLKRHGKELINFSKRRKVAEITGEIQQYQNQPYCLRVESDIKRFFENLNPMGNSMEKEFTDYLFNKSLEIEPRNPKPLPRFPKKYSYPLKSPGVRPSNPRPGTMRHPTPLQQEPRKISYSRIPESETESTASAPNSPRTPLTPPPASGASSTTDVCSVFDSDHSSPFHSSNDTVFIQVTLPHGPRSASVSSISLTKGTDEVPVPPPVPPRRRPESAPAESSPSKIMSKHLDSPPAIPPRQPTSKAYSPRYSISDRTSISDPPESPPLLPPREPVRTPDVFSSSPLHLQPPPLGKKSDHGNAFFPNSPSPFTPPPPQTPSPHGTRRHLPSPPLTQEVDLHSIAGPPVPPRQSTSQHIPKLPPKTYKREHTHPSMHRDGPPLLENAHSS
# K562 [11] = test: Downregulation of phosphorylated-ERK level in human K562 cells at 0.3 to 3 uM incubated for 24 hrs by Western blotting analysis; format: functional, cell-based; conditions: dose 0.3-3 µM
# K562 [12] = test: Effect on total ERK level in human K562 cells at 0.3 to 3 uM incubated for 24 hrs by Western blotting analysis; format: functional, cell-based; conditions: dose 0.3-3 µM
# [13] = AUC(0 to t) in ICR mouse at 10 mg/kg, po measured upto 24 hrs by LC-MS/MS analysis; format: ADME, organism-based; conditions: in vivo
# [14] = AUC(0 to infinity) in ICR mouse at 10 mg/kg, po measured upto 24 hrs by LC-MS/MS analysis; format: ADME, organism-based; conditions: in vivo
# K562 [15] = test: Antitumor activity against human K562 cells xenografted in NOD-SCID mouse assessed as tumor growth inhibition at 25 mg/kg, ip administered as 5 days on and 2 days off schedule for 21 days; format: functional; conditions: K562, 120 h, time 5 day, read-out: TGI
# [16] = Toxicity in NOD-SCID mouse assessed as body weight loss at 5 to 25 mg/kg, ip administered as 5 days on and 2 days off schedule for 21 days; format: organism-based; conditions: in vivo, 120 h, dose 5-25 mg/kg, time 5 day
# NCI-H358 = test: Inhibition of ERK phosphorylation in human NCI-H358 cells at 1 uM measured after 24 to 72 hrs in presence of AMG510 by Western blotting analysis; format: cell-based; conditions: time 24-72 hrs
# MIA PaCa-2 [17] = test: Antiproliferative activity against human MIA PaCa-2 cells incubated for 6 days by CCK8 assay; format: functional, cell-based; conditions: MIA PaCa-2, 144 h
# SW837 = test: Antiproliferative activity against human SW837 cells incubated for 6 days by CCK8 assay; format: functional, cell-based; conditions: SW837, 144 h
# MIA PaCa-2 [18] = test: Induction of apoptosis in human MIA PaCa-2 cells assessed as increase in cleaved caspase-3 level incubated for 24 hrs in presence of 4-((S)-4-acryloyl-2-methylpiperazin-1-yl)-6-fluoro-7-(2-fluoro-6-hydroxyphenyl)-1-(2-isopropyl-4-methylpyridin-3-yl)pyrido[2,3-d]pyrimidin-2(1H)-one by Western blotting assay; format: functional, cell-based
compound,measurement,setting,value
COc1cc2nc(C)nc(N[C@H](C)c3cc(N)cc(C(F)(F)F)c3)c2cc1OCCCCC(=O)N[C@H](C(=O)N1C[C@H](O)C[C@H]1C(=O)NCc1ccc(-c2scnc2C)cc1)C(C)(C)C,Activity,[1],93.3%
same,Activity,[2],Dose-Dependent Effect
same,DC50,[2],43 nM
same,Emax,[3],> 90%
same,Emax,[4],> 90%
same,Activity,[5],Active
same,Activity,[6],Active
same,Activity,[7],inactive
same,Activity,[8],inactive
same,Activity,[9],inactive
same,Activity,[10],Active
same,Activity,K562 [11],Active
same,Activity,K562 [12],inactive
same,AUC(0-t) at 24 h,[13],4260 ng·h/mL
same,AUC(0-inf),[14],4280 ng·h/mL
same,inhibition in vivo at 25 mg/kg,K562 [15],72.3%
same,Activity,[16],Non-Toxic
same,inhibition,NCI-H358,Active
same,IC50,MIA PaCa-2 [17],3480 nM
same,IC50,SW837,1040 nM
same,Activity,MIA PaCa-2 [18],Active
